Source: the NIST ThermoML archive (doi:10.1016/j.jct.2007.06.013)
± gives the expanded uncertainty stated by the source.

Tests used:
[1] = molar heat capacity at constant pressure; details: Liquid, calorimeter with the thermal relaxation.
[2] = molar heat capacity at constant pressure; xn = mol fraction of the nth substance listed; details: Liquid, calorimeter with the thermal relaxation.

N [ammonia]
[1]
Details | molar heat capacity at constant pressure [J/K/mol]
280 K, 1000 kPa | 76.81 ± 2
280 K, 5000 kPa | 75.62 ± 4.6
300 K, 5000 kPa | 76.81 ± 3.4
320 K, 5000 kPa | 77.83 ± 2
360 K, 5000 kPa | 95.2 ± 1.7
360 K, 10000 kPa | 92.82 ± 1.7
360 K, 15000 kPa | 90.26 ± 3.1

N [ammonia] + O
molar heat capacity at constant pressure [J/K/mol], [2]
Details | x2 = 0 | x2 = 0.1566 | x2 = 0.1597 | x2 = 0.303 | x2 = 0.3048 | x2 = 0.4956 | x2 = 0.7061 | x2 = 0.8489
280 K, 100 kPa | – | – | – | – | – | – | 68.95 ± 1.4 | 70.04 ± 1.4
280 K, 1000 kPa | 76.81 ± 2 | 76.13 ± 1.9 | – | 71.92 ± 1.7 | – | 76.38 ± 1.6 | 69.48 ± 1.6 | 70.93 ± 1.4
280 K, 5000 kPa | 75.62 ± 4.6 | 74.58 ± 4.3 | – | 74.17 ± 4 | – | 76.03 ± 3.9 | 72.68 ± 3.7 | 72.89 ± 3.6
300 K, 100 kPa | – | – | – | – | – | – | – | 73.25 ± 0.54
300 K, 1000 kPa | – | 78.19 ± 2.9 | – | 77.63 ± 2.8 | – | 80.94 ± 2.8 | 75.33 ± 2.7 | 74.86 ± 2.5
300 K, 5000 kPa | 76.81 ± 3.4 | 76.13 ± 3.3 | – | 77.29 ± 3.1 | – | 78.83 ± 3 | 76.58 ± 2.8 | 74.86 ± 2.7
320 K, 1000 kPa | – | – | – | – | – | 79.71 ± 2.1 | 75.51 ± 1.9 | 73.97 ± 2
320 K, 5000 kPa | 77.83 ± 2 | 77.85 ± 1.9 | – | 80.93 ± 1.7 | – | 82.86 ± 1.8 | 79.41 ± 1.6 | 77.18 ± 1.6
360 K, 1000 kPa | – | – | – | – | – | – | 79.77 ± 1.1 | 76.11 ± 0.89
360 K, 5000 kPa | 95.2 ± 1.7 | – | 85.94 ± 1.4 | – | 84.92 ± 1.2 | 83.21 ± 1.2 | 81.72 ± 1.1 | 77.54 ± 1.1
360 K, 10000 kPa | 92.82 ± 1.7 | – | 86.97 ± 1.4 | – | 88.21 ± 1.4 | 85.32 ± 1.1 | 84.55 ± 1.1 | 80.04 ± 1.1
360 K, 15000 kPa | 90.26 ± 3.1 | – | 86.11 ± 2.6 | – | 86.65 ± 2.4 | 85.84 ± 2.3 | 84.73 ± 2.1 | 79.69 ± 2.1
